Reference: PubChem BioAssay (NCI)
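Tested at 5 concentrations; 48 h exposure; 96-well plates; endpoints linearly interpolated, else capped at highest concentration. GI50 is the concentration that inhibits growth by half. The concentration for full growth arrest is given as TGI.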

Columns and labels:
Experiment in all cases: growth of human tumour cells (NCI), 48 h
OVCAR-8 ovarian = tested on: OVCAR-8 ovarian
NCI-H522 lung = tested on: NCI-H522 lung
MCF7 breast = tested on: MCF7 breast
T-47D breast = tested on: T-47D breast
HT29 colon = tested on: HT29 colon
SK-MEL-2 melanoma = tested on: SK-MEL-2 melanoma
UACC-62 melanoma = tested on: UACC-62 melanoma
SR leukemia = tested on: SR leukemia
SF-268 CNS = tested on: SF-268 CNS
SNB-75 CNS = tested on: SNB-75 CNS

Row | SMILES | TGI (OVCAR-8 ovarian) [µM] | TGI (NCI-H522 lung) [µM] | TGI (MCF7 breast) [µM] | TGI (T-47D breast) [µM] | TGI (HT29 colon) [µM] | TGI (SK-MEL-2 melanoma) [µM] | TGI (UACC-62 melanoma) [µM] | TGI (SR leukemia) [µM] | TGI (SF-268 CNS) [µM] | TGI (SNB-75 CNS) [µM] | GI50 (OVCAR-8 ovarian) [µM] | GI50 (NCI-H522 lung) [µM] | GI50 (SNB-75 CNS) [µM] | GI50 (MCF7 breast) [µM] | GI50 (T-47D breast) [µM] | GI50 (HT29 colon) [µM] | GI50 (UACC-62 melanoma) [µM] | GI50 (SR leukemia) [µM] | GI50 (SF-268 CNS) [µM] | GI50 (SK-MEL-2 melanoma) [µM]
1 | Clc1ccc2c(NC3CCC(N4CCCCC4)CC3)ccnc2c1 (centres undefined) | > 100 | 51.6 | > 100 | > 100 | 40.7 | 33.9 | 32.2 | 35.5 | > 100 | – | – | – | – | – | – | – | – | – | – | –
2 | C[C@]12CC[C@H]3[C@@H](CC[C@]4(O)C[C@@H](O)CC[C@]34C=O)[C@@]1(O)CC[C@@H]2C1=CC(=O)OC1 | 1.69 | 1.4 | – | 5.03 | 2.03 | 2.86 | 3.38 | > 100 | 2 | – | – | – | – | – | – | – | – | – | – | –
3 | CC1C(c2ccccc2)N(C)C(c2ccccc2)C(C)C1(O)c1ccccc1 (centres undefined) | > 100 | > 100 | – | – | > 100 | > 100 | > 100 | – | > 100 | > 100 | – | – | – | – | – | – | – | – | – | –
4 | O=[N+]([O-])c1ccc2c(c1)C(N1CCN(CCO)CC1)Cc1ccc(F)cc1S2 (centres undefined) | 25.5 | 18.3 | 28.8 | 37.6 | 7.14 | – | 12.3 | 20.6 | 31.4 | 12.4 | – | – | – | – | – | – | – | – | – | –
5 | O=C(Nc1cccc([N+](=O)[O-])c1)c1cccc(C(=O)Nc2cccc([N+](=O)[O-])c2)c1 | > 100 | > 100 | > 100 | > 100 | > 100 | – | > 100 | > 100 | > 100 | 72.2 | 14 | 3.32 | 8.42 | > 100 | 56.9 | > 100 | > 100 | > 100 | 5.22 | –
6 | NS(=O)(=O)c1ccc(-n2nc3c(c2-c2cccs2)Cc2ccccc2-3)cc1 | 41.6 | 29.8 | > 100 | 41.1 | 59.4 | 69.6 | 23.7 | – | > 100 | 83.1 | 20.5 | 12.4 | 25.5 | > 100 | 12.8 | 22.9 | 11.5 | – | > 100 | 27.6
7 | O=C(NC1CCC[C@H]1OC(=O)c1ccccc1)c1ccccc1 (some centres undefined) | > 100 | – | – | – | > 100 | > 100 | > 100 | > 100 | > 100 | 98.9 | – | – | – | – | – | – | – | – | – | –
8 | Cc1cc(OCc2ccc(C(F)(F)F)cc2)c2c(c1)C(=O)C=C(NCCN1CCCC1)C2=O | 12.1 | 6.05 | 3.56 | – | 5.01 | 4.08 | 3.51 | 6.97 | 4.24 | 2.89 | 3.25 | 2.66 | 1.49 | 1.67 | – | 1.94 | 1.82 | 2.6 | 1.97 | 1.99
9 | CC1(c2ccc(F)cc2)C2C(=O)NC(=O)C1C(=O)NC2=O (centres undefined) | > 100 | > 100 | – | – | > 100 | > 100 | > 100 | – | > 100 | > 100 | – | – | – | – | – | – | – | – | – | –
10 | C=CCC1(CN(C)C)CC/C(=C\c2ccc3c(c2)OCO3)C1=O (centres undefined) | > 100 | 40.2 | – | – | > 100 | > 100 | > 100 | > 100 | > 100 | > 100 | – | – | – | – | – | – | – | – | – | –
